Patent EP0906127B1, “NOVEL DEVICES FOR TRANSDERMAL ADMINISTERING OF TRIMEGESTONE” (priority 1996, dated 1997)

Experiments:
[1] = biological target: T1, récepteurs hormonaux humains recombinant androgène (hAN) (Homo sapiens, UniProt P10275); assay: Relative binding affinity for recombinant hormone receptors (SF9 insect cell-baculovirus overexpression)
T1 construct: made in house; host or cells: SF9 insect cells / baculovirus
From the text: (§1) Cette affinité a été étudiée sur les récepteurs hormonaux humains recombinant de la progestérone (hPR), androgène (hAN), glucocorticoide (hGR) et estrogène (hER).

[2] = In vivo studies of the hormonal activity profile
[3] = biological target: T2, récepteurs hormonaux humains recombinant glucocorticoide (hGR) (Homo sapiens, UniProt P04150); assay: Relative binding affinity for recombinant hormone receptors (SF9 insect cell-baculovirus overexpression)
T2 construct: made in house; host or cells: SF9 insect cells / baculovirus
T2 sequence (P04150 1-777): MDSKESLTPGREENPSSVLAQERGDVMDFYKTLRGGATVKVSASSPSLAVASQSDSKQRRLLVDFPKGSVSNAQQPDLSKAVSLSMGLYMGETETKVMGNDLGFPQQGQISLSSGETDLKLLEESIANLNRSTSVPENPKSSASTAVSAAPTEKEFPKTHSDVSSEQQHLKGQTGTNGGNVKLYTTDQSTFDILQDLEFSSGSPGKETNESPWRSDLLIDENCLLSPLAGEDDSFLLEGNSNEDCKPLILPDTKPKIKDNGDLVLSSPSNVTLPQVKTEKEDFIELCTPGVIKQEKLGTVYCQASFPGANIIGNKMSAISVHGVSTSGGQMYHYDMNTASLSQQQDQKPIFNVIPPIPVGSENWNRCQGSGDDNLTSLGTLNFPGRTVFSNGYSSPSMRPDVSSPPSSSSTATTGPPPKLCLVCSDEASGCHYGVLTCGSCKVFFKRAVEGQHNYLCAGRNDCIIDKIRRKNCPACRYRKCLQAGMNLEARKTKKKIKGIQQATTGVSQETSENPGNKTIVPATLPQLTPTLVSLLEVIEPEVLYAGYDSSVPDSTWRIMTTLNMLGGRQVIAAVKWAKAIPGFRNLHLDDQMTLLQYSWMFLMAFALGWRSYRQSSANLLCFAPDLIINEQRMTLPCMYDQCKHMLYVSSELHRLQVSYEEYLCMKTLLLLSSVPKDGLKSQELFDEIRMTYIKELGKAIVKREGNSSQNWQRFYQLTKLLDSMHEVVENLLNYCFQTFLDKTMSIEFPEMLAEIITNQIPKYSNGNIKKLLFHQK
From the text: Cette affinité a été étudiée sur les récepteurs hormonaux humains recombinant de la progestérone (hPR), androgène (hAN), glucocorticoide (hGR) et estrogène (hER). Ces récepteurs sont obtenus par surexpression dans un système cellules d'insectes-bacullovirus SF9 selon les méthodes décrites notamment dans la demande de brevet Européenne 0 629 635. Les affinité relatives de liaison (ARL) sont les suivantes : […]

[4] = biological target: T3, récepteurs hormonaux humains recombinant de la progestérone (hPR) (Homo sapiens, UniProt P06401); assay: as above
T3 construct: made in house; host or cells: SF9 insect cells / baculovirus
T3 sequence (P06401 1-933): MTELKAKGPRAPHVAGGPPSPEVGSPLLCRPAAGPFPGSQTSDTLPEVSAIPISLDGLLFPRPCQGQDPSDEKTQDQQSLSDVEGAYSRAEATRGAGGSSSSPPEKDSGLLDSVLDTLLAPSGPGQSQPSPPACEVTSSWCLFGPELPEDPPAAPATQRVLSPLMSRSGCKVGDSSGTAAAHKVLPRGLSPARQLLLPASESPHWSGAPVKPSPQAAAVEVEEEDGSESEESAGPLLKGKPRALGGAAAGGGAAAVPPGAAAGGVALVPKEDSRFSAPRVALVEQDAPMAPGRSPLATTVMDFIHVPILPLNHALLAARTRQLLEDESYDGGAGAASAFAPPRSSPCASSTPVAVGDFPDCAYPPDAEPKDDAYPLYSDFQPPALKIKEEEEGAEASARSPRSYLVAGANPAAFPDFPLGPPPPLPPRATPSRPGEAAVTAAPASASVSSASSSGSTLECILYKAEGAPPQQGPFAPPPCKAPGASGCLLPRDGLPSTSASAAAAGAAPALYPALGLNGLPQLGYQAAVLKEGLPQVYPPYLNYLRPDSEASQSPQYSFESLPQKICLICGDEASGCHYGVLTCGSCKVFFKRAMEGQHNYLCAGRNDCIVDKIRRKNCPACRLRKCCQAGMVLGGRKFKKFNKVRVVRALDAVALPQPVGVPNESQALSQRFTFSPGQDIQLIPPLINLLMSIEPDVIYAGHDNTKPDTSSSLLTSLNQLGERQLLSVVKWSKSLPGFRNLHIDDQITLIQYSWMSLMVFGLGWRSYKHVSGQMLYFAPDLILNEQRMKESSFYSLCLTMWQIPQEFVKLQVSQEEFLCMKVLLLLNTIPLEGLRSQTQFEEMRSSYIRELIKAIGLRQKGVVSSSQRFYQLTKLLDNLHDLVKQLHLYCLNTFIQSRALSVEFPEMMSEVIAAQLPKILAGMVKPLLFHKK
From the text: as §1

[5] = biological target: T4, récepteurs hormonaux humains recombinant estrogène (hER) (Homo sapiens, UniProt P03372); assay: as above
T4 construct: made in house; host or cells: SF9 insect cells / baculovirus
T4 sequence (P03372 1-595): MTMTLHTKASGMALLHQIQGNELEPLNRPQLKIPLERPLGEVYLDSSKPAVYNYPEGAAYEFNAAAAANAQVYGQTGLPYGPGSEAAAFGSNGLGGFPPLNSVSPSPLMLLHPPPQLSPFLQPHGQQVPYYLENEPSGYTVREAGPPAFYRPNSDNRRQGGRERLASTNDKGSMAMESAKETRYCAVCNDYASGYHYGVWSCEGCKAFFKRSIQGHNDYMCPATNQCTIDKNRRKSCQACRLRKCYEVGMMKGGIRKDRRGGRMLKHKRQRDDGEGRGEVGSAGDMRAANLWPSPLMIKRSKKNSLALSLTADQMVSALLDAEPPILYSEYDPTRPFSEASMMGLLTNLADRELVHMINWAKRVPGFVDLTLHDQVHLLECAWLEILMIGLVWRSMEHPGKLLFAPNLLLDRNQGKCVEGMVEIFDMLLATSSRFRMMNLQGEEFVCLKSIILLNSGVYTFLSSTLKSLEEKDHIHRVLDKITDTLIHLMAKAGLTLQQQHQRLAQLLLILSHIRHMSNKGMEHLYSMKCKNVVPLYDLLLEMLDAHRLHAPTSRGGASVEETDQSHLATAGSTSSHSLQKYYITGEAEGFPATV
From the text: as §1

T1 sequence (P10275 whole entry): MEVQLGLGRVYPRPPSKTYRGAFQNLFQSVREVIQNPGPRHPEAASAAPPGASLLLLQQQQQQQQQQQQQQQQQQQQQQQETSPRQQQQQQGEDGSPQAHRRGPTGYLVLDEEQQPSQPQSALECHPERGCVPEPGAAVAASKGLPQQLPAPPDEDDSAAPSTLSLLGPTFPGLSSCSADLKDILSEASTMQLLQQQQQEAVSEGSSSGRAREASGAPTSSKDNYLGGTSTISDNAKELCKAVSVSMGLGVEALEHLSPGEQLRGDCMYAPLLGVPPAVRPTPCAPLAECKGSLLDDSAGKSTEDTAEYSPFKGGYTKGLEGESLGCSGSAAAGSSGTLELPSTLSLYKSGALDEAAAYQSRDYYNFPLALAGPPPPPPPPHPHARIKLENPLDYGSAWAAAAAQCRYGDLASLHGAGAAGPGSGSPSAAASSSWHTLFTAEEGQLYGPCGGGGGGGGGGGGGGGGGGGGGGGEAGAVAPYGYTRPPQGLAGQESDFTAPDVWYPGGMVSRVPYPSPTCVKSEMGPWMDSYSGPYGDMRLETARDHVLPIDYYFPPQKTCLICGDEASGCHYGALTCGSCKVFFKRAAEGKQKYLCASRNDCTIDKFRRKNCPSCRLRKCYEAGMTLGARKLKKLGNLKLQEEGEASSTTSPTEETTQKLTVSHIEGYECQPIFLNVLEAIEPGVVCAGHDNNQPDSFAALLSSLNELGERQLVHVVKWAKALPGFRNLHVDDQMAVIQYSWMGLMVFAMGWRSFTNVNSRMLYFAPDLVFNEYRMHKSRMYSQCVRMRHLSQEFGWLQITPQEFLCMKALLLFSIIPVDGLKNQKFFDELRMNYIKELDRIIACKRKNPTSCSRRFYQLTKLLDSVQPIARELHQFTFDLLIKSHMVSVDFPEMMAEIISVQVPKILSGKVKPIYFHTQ

Compound | affinité vis-à-vis du récepteur androgène ([1]; in words) | activité androgène [2] | activité antiandrogène [2] | activité antiglucocorticoïde [2] | activité antiminéralocorticoïde [2] | activité estrogène [2] | activité glucocorticoïde [2] | activité minéralocorticoïde [2] | activité progestomimétique [2] | ARL hGR [3] | ARL hAN ([1]; relative binding affinity) | ARL hPR [4] | ARL hER [5]
C[C@H](O)C(=O)[C@@]1(C)CC[C@H]2[C@@H]3CCC4=CC(=O)CCC4=C3CC[C@@]21C [Trimegestone, 17alpha-méthyl-17béta-(2-hydroxy-1-oxo-propyl)-estra-4,9-dièn-3-one (21S)] | très faible affinité | dénué | présente | dénué | présente | dénué | dénué | dénué | puissant progestomimétique | – | – | – | –
medroxypropgestérone [MPA] | – | – | – | – | – | – | – | – | – | 58 | 36 | 298 | < 0,02
